The results in this text go back to US5604214A, “Reduction of boar odor in meat” (Pfizer Inc., priority 1993, dated 1997).

The assay has as its system boar salivary gland steroid 5-α-reductase (boar 4-ene-5-α-reductase enzyme). Description: Boar steroid 5α-reductase enzyme activity and inhibitor potency assay ([14C]testosterone conversion, boar salivary gland microsomes). It is filed as biochemical. Conditions: 500 nM compound, 37° C., 30 minutes. The procedure: Microsomal preparations from boar salivary glands were prepared by the protocol desbribed by Liang, et al. for human prostatic microsomal 5-α-reductase.
Assay for enzyme activity and inhibitor potency.
A constant amount of [^14 C]testosterone (50 to 55 mCi/mmol) in ethanol and varying amounts of potential inhibitor (or no inhibitor i.e. control) in ethanol were deposited in test tubes and concentrated to dryness in vacuo. Assays for boar steroid 5α-reductase enzyme were conducted with a sample of the boar salivary gland 5-α-reductase in 50 mM phosphate buffer, pH 7.5 or in 50 mM citrate buffer at pH 5.0. To each tube was added buffer, 40 μl of microsomal preparation from boar salivary glands (hereinafter boar salivary gland steroid 5-α-reductase) and 20 μl of 20 mM NADPH to a final volume of 0.5 mL.
After incubating the solution at 37° C. for 30 minutes the reaction was quenched by the addition of 4 mL ethyl acetate and 0.25 μmol each of testosterone, 5α-dihydrotestosterone, androstanediol, and androstanedione as carriers. The organic layer was removed to a second test tube and evaporated to dryness in a Speed Vac. The residue was dissolved in 40 μL chloroform, spotted on an individual lane of a 20×20 cm prechannelled silica gel TLC plate (Si 250F-PA, Baker Chemical) and developed twice with acetone:chloroform (1:9). The radiochemical content in the bands of the substrate and the products was determined with a BIOSCAN Imaging Scanner (Bioscan Inc., Washington, D.C.). The percent of recovered radiolabel converted to product was calculated, from which enzyme activity was determined. All incubations were conducted such that no more than 20% of the substrate (testosterone) was consumed.
By following the above procedure in the absence of an inhibitor (i.e. control) a significant formation of 5-α-dihydrotestosterone, and the androstanediols occurred which indicated the presence of a high level of 4-ene-5-α-reductase enzyme activity in the microsomes prepared from the salivary glands of the boar.

[1] abbreviates: pH 7.5 (50 mM phosphate buffer).

With `CC(C)(C)NC(=O)[C@H]1CC[C@H]2[C@@H]3CC[C@H]4NC(=O)C=C[C@]4(C)[C@H]3CC[C@]12C` [17β-(N-t-butylcarbamoyl)-4-aza-5α-androst-1-en-3-one], under setting [1], the “inhibition of the boar 5-α-reductase enzyme (vs. control)” value is on record as 50%.
On the same count and under the same terms, then `CC(C)(C)NC(=O)[C@H]1CC[C@H]2[C@@H]3CC=C4C=C(C(=O)O)CC[C@]4(C)[C@H]3CC[C@]12C` [17β-(N-t-butylcarboxamide)-androst-3,5-diene-3-carboxylic acid], with 50%.
For the compound `CC(C)(C)NC(=O)[C@H]1CC[C@H]2[C@@H]3CCc4cc(C(=O)O)ccc4[C@H]3CC[C@]12C` [17β-(N-t-butylcarboxamide)-estr-1,3,5(10)triene-3-carboxylic acid], the “inhibition of the boar 5-α-reductase enzyme (vs. control)” value is, setting by setting: (pH 5 (50 mM citrate buffer)) ~65%; under setting [1], 80%.
